ChEMBL document CHEMBL4507268 (2021)

Columns and labels:
Rattus norvegicus = organism: Rattus norvegicus; conditions: Compound concentration 10.0 uM
[1] = molecular target: Protein-tyrosine kinase 2-beta (Homo sapiens) (UniProt Q14289); conditions: Compound concentration 1.0 uM
[2] = molecular target: Tyrosine-protein kinase Srms (Homo sapiens) (UniProt Q9H3Y6); conditions: Compound concentration 1.0 uM
[3] = molecular target: [Pyruvate dehydrogenase (acetyl-transferring)] kinase isozyme 4, mitochondrial (Homo sapiens) (UniProt Q16654); conditions: Compound concentration 1.0 uM
[4] = molecular target: Serine/threonine-protein kinase PAK 1 (Homo sapiens) (UniProt Q13153); conditions: Compound concentration 1.0 uM
Chain of Serine/threonine-protein kinase PAK 1 (Homo sapiens) (Q13153 whole entry): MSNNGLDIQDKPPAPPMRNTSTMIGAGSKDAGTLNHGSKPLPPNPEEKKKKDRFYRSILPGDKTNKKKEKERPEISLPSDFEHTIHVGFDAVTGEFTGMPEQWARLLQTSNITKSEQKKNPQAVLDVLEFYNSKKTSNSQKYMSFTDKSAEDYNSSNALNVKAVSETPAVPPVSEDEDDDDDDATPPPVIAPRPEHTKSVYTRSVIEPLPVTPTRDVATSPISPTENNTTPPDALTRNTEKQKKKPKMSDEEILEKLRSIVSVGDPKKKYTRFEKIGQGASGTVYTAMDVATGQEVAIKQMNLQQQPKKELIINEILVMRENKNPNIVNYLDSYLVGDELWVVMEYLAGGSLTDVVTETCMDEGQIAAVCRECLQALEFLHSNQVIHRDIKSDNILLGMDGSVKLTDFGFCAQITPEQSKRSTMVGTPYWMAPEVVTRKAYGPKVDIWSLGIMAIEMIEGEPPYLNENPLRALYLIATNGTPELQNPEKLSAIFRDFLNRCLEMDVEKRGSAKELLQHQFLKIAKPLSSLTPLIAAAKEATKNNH

[5] = molecular target: T1, cGMP-dependent protein kinase 1 (Homo sapiens) (UniProt Q13976); conditions: Compound concentration 1.0 uM
T1 sequence (whole entry): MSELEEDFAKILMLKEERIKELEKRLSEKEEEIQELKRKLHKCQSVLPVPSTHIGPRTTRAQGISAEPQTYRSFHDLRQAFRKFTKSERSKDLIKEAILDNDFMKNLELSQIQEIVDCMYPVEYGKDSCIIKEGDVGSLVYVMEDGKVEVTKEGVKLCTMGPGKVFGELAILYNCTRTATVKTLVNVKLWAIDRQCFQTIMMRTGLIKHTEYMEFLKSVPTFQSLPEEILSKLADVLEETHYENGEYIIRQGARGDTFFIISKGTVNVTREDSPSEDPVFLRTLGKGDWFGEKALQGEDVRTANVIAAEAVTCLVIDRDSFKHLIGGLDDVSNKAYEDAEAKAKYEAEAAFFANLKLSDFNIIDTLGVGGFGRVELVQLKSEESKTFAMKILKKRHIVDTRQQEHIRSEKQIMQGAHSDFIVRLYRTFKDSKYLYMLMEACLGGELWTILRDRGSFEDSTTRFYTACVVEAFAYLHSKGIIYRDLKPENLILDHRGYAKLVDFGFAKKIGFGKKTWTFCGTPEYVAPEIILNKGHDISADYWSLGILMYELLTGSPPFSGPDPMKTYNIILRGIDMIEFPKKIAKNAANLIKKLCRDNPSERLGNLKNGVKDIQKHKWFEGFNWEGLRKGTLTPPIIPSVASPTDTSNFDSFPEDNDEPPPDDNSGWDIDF

[6] = molecular target: T2, Serine/threonine-protein kinase haspin (Homo sapiens) (UniProt Q8TF76); conditions: Compound concentration 1.0 uM
T2 sequence (whole entry): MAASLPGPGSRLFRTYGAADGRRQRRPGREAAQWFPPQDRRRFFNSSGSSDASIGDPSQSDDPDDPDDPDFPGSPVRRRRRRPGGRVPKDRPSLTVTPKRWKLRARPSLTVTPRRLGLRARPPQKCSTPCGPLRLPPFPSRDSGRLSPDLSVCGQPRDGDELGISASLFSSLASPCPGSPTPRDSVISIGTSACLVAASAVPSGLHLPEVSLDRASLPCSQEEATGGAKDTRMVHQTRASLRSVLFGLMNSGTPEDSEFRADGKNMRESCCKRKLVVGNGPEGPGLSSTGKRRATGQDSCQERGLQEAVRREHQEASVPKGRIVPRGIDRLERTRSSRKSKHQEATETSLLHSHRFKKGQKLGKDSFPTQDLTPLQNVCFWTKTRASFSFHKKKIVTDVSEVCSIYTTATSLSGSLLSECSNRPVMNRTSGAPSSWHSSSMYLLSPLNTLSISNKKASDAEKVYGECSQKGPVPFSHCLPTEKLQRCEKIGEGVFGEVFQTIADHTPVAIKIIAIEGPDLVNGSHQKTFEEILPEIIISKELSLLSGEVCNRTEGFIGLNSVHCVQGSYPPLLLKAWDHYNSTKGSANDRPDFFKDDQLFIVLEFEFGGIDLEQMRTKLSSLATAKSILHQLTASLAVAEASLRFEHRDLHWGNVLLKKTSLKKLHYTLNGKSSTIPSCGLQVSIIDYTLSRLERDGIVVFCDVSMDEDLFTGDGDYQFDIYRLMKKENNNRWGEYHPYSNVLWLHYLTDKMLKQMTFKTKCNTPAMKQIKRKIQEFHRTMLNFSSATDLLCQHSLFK

[7] = molecular target: Serine/threonine-protein kinase/endoribonuclease IRE1 (Homo sapiens) (UniProt O75460); conditions: Compound concentration 1.0 uM
[8] = molecular target: Serine/threonine-protein kinase PAK 3 (Homo sapiens) (UniProt O75914); conditions: Compound concentration 1.0 uM
[9] = molecular target: Ephrin type-A receptor 4 (Homo sapiens) (UniProt P54764); conditions: Compound concentration 1.0 uM
Chain of Ephrin type-A receptor 4 (Homo sapiens) (P54764 whole entry): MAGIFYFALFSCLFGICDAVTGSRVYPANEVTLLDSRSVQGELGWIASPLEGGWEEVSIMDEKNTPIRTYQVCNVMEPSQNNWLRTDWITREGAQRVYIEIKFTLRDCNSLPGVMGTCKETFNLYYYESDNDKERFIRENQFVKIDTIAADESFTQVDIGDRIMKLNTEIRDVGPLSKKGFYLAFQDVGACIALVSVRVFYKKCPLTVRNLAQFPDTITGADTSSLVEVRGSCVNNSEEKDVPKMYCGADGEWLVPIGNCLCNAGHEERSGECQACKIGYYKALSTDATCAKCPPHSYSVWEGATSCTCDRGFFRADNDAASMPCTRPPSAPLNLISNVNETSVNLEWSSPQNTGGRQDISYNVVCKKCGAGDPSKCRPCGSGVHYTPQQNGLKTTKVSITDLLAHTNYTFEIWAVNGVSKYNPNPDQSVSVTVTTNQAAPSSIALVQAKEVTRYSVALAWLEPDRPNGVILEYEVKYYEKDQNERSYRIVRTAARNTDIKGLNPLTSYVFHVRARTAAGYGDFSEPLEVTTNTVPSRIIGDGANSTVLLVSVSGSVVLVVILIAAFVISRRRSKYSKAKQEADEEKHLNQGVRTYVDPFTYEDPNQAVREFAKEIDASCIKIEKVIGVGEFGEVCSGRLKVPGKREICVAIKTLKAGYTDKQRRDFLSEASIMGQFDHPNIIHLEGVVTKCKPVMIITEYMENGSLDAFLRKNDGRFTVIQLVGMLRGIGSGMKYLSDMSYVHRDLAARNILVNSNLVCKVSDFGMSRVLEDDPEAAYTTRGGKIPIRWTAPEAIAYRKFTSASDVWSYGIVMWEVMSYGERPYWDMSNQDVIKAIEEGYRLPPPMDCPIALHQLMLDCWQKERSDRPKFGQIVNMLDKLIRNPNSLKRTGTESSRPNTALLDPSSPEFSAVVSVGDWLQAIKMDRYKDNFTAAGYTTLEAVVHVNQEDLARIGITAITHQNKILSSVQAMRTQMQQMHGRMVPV

[10] = molecular target: Protein kinase C beta type (Homo sapiens) (UniProt P05771); conditions: Compound concentration 1.0 uM
Chain of Protein kinase C beta type (Homo sapiens) (P05771 2-671 limits assumed): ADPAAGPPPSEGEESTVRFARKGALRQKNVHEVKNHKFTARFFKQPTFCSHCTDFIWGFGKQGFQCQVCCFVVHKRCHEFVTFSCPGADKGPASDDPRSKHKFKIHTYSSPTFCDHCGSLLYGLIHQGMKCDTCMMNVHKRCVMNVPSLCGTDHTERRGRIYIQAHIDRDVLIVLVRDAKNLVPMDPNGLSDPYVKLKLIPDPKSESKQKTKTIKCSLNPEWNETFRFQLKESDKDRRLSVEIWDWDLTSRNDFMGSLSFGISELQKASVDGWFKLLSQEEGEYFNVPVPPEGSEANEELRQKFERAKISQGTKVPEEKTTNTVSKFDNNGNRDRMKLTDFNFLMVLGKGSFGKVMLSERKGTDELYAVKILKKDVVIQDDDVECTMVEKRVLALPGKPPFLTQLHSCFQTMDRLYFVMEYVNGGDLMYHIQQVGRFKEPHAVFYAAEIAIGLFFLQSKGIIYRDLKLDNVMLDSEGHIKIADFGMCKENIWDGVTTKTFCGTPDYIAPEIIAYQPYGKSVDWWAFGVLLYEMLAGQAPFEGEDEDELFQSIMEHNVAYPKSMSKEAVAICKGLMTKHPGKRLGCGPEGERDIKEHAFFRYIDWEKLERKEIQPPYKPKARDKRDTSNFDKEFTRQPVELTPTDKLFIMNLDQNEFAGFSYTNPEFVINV

[11] = molecular target: T3, Mitogen-activated protein kinase kinase kinase 2 (Homo sapiens) (UniProt Q9Y2U5); conditions: Compound concentration 1.0 uM
T3 sequence (whole entry): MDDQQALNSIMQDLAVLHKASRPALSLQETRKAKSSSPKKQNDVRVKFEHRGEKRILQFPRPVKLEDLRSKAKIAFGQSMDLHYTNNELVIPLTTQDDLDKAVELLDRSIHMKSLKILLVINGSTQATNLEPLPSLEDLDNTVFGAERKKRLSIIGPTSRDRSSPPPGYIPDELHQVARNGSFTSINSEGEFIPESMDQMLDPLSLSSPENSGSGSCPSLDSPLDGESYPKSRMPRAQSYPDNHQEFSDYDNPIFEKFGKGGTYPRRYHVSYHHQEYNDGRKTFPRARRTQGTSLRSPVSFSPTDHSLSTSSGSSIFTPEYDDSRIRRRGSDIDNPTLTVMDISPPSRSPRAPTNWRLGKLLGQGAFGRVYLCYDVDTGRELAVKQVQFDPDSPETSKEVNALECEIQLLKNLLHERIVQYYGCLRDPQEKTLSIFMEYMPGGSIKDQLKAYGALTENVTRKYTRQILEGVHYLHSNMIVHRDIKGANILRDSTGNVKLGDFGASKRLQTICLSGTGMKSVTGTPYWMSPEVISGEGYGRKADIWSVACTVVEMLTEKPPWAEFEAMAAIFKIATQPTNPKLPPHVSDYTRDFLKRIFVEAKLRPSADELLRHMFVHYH

[12] = molecular target: Tyrosine-protein kinase receptor UFO (Homo sapiens) (UniProt P30530); conditions: Compound concentration 1.0 uM
[13] = molecular target: Mitogen-activated protein kinase 11 (Homo sapiens) (UniProt Q15759); conditions: Compound concentration 1.0 uM
Chain of Mitogen-activated protein kinase 11 (Homo sapiens) (Q15759 whole entry): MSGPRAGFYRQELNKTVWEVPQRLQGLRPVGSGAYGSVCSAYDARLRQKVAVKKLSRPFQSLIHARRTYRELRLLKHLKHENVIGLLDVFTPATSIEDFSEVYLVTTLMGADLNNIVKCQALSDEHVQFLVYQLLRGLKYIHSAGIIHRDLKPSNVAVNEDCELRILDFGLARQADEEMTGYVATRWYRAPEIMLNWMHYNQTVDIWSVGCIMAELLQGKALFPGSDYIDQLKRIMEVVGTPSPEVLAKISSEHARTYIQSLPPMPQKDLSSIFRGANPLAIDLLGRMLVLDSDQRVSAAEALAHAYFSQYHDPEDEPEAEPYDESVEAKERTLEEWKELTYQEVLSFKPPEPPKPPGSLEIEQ

[14] = molecular target: Serine/threonine-protein kinase 26 (Homo sapiens) (UniProt Q9P289); conditions: Compound concentration 1.0 uM
Chain of Serine/threonine-protein kinase 26 (Homo sapiens) (Q9P289 2-416 limits assumed): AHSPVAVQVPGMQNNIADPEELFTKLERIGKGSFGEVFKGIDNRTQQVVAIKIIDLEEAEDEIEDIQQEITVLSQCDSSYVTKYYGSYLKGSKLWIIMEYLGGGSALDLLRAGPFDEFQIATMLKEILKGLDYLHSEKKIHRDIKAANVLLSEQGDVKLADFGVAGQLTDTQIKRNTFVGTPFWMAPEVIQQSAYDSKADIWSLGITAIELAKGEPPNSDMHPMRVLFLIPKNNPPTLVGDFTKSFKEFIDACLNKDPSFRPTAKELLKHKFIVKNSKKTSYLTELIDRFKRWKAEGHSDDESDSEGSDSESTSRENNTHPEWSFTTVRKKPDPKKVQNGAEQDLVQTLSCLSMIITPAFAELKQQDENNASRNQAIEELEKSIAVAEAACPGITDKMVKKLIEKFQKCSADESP

[15] = molecular target: Serine/threonine-protein kinase pim-1 (Homo sapiens) (UniProt P11309); conditions: Compound concentration 1.0 uM
Chain of Serine/threonine-protein kinase pim-1 (Homo sapiens) (P11309 whole entry, looked up): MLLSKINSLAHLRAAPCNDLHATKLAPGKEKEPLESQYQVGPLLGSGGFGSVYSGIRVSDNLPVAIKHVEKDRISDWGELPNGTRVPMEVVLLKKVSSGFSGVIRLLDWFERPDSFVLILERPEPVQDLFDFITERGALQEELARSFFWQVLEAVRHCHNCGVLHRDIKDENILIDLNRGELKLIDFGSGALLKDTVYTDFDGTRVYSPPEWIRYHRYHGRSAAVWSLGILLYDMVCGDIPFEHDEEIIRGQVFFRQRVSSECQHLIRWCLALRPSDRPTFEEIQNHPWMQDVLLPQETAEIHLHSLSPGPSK

[16] = molecular target: Serine/threonine-protein kinase WNK1 (Homo sapiens) (UniProt Q9H4A3); conditions: Compound concentration 1.0 uM

Chain of Tyrosine-protein kinase Srms (Homo sapiens) (Q9H3Y6 whole entry): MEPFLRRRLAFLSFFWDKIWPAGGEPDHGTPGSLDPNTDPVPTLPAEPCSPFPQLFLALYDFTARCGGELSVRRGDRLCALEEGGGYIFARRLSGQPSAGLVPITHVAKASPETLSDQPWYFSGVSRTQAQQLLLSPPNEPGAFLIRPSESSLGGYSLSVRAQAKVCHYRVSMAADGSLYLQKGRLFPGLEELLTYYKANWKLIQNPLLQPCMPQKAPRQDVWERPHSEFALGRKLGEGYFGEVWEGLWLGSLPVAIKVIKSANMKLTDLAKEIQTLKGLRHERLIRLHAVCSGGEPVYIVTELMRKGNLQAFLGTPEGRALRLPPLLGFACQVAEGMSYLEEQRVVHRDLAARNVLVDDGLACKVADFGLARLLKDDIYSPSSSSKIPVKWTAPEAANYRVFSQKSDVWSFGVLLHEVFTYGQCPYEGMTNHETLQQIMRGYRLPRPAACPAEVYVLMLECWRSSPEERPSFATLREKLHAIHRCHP
Chain of Protein-tyrosine kinase 2-beta (Homo sapiens) (Q14289 whole entry, looked up): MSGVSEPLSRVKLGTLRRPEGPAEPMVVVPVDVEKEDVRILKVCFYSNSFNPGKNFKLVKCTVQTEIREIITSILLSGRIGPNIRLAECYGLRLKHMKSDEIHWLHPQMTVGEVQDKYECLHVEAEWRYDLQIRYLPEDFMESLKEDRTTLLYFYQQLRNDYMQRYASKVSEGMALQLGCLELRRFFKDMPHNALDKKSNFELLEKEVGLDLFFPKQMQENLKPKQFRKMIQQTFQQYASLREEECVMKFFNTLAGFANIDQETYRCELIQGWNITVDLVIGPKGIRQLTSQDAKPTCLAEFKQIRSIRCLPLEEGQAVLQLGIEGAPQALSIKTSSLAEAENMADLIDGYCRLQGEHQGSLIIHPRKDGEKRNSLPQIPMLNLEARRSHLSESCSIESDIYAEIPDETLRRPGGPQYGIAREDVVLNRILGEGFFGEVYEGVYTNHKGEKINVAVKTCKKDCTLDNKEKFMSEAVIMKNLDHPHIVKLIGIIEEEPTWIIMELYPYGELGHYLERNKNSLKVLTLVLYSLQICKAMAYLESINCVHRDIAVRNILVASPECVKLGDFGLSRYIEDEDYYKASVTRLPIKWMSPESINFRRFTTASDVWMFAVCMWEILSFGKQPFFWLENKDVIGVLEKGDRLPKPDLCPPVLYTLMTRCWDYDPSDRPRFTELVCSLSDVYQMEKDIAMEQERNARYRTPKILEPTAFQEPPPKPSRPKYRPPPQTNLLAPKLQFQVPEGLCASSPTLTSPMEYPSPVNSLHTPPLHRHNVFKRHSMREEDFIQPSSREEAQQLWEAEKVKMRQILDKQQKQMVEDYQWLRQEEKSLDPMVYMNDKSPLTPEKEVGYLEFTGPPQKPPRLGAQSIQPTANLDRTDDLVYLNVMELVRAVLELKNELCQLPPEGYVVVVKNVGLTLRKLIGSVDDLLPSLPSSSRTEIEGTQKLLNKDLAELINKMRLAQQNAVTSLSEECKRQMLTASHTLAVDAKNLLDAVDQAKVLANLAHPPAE

Cc1nc(C2CCN(C(=O)c3ccc(OC(F)(F)F)cc3N)CC2)c2ncc(N3CCN(C)CC3)cc2n1 [BAY-693]
inactive: inhibition (Rattus norvegicus) -4.32%

CN1CCN(c2cnc3c(C4CCN(C(=O)c5ccc(OC(F)(F)F)cc5N)CC4)ncnc3c2)CC1 [BAY-885]
inactive: % residual kinase activity [1] 103% | % residual kinase activity [2] 81% | % residual kinase activity [3] 104% | % residual kinase activity [4] 95% | % residual kinase activity [5] 122% | % residual kinase activity [6] 105% | % residual kinase activity [7] 110% | % residual kinase activity [8] 106% | % residual kinase activity [9] 82% | % residual kinase activity [10] 110% | % residual kinase activity [11] 116% | % residual kinase activity [12] 91% | % residual kinase activity [13] 103% | % residual kinase activity [14] 103% | % residual kinase activity [15] 111% | % residual kinase activity [16] 105%
